From patent publication US6379676B2, “Enhancing immune response in animals” (priority 1999, dated 2002)

Test system: E. coli
Procedure: The term “resistant to contamination by pathogenic bacteria” means that a challenge with 1000 colony forming units (CFU) per gram of feed results in the death of substantially all the bacteria within 24 to 72 hours. In particular, the term “resistance to contamination by Salmonella or E. coli” means that a challenge with 1000 CFUs of Salmonella or E. coli per gram of feed results in 1 CFU or less per 25 grams of feed after 24 hours incubation at 25° C.
One set of samples was treated with a coarse spray (270 microns) at 1.8 gal/hr. (6.81 liters/hr.) and another was treated with fine mist (43 microns) at 25.5 gal/hr. (96.5 liters/hr.). Each sample of 500 grams was challenged with 20 ml of a liquid inoculum of Escherishia coli (>10^6 CFU/ml) one week after treatment.

C=O [formaldehyde]
time finished feed resists contamination by E. coli (2 lbs. (0.91 kg) dry wt. per metric ton, 2.0% CV, 1000 CFUs/gram of feed): about 60 days | resistance as measured by challenge with E. coli (4 lbs. (1.81 kg) dry wt. per metric ton of finished feed, 7% CV, 1000 CFU/gram of feed): about 30 days
